Data published in PMC6856805, “Environmental Risk Assessment for the Active Pharmaceutical Ingredient Mycophenolic Acid in European Surface Waters” (Environmental Toxicology and Chemistry, 2019).
Converted amounts (≈) assume the structure as drawn. Where two headings read alike, the source gives them in different places.

Key:
[1] = test system: Anabaena flos-aquae; test: microbe, parasite or virus in culture; format: cell-based; settings: 72 h
Excerpt: The new chronic ecotoxicity tests with cyanobacteria (D. Gilberg and G. Chambers, ECT Oekotoxikologie, Flörsheim, Germany, on behalf of F.Hoffmann‐La Roche, Basle, Switzerland, unpublished data), daphnids (P. Egeler and J. Chambers, ECT Oekotoxikologie, Flörsheim, Germany, on behalf of F.Hoffmann‐La Roche, Basle, Switzerland, unpublished data), and fish (D. Gilberg and G. Chambers, unpublished data) fulfilled the validity criteria of the respective OECD guidelines (see the Supplemental Data). […] The following endpoints were determined, all relating to GMMC: NOEC (both growth and yield) 83.9 µg MPA/L, LOEC 284 µg/L, ErC10 155 (95% confidence interval [CI] 137–171) µg/L, and ErC50 423 (95% CI 406–441) µg/L (D. Gilberg and G. Chambers, unpublished data).
An OECD 201 algal growth inhibition test was performed by ECT Oekotoxikologie, Flörsheim, Germany, with the cyanobacterian Anabaena flos-aquae with a series of concentrations of MPA in cyanobacteria test medium in different concentrations plus medium-only controls under continuous lighting over 72 h (Gilberg & Chambers 2017). The growth of the algae was measured by calibrated fluorescence intensity of sonicated test solution samples using a fluorometer after 24, 48 and 72 hours. The test concentrations were analysed by HPLC at the start and end of the test.

[2] = test system: Danio rerio; test: Fish partial life cycle test, OECD 210 early life stage phase (F1); format: in vivo
Procedure: At the highest tested concentration of 0.1 mg MPA/L nominal concentration (73 µg/L GMMC), only 2 of 75 hatched fish survived until the end of the test, showing that the test concentration range was well chosen. The most sensitive endpoints in this partial life cycle test were survival and growth in terms of length and mass of the young F1 fish; the effects were comparatively small but statistically significant at p = 0.05. In contrast, the F0 generation was impacted to a lesser extent.
In view of the mammalian mutagenicity and reprotoxicity, a fish partial life-cycle test (PLC; an OECD 229 short-term reproduction test followed by an OECD 210 early-life-stage test) was performed by ECT Oekotoxikologie under GLP with a series of concentrations of MPA in a flow-through setting with the zebrafish Danio rerio (Gilberg & Chambers 2018). Briefly, mature fish (F0 generation) in breeding groups of 14 fish were exposed to four concentrations of the test item (0.0005, 0.0029, 0.0171 and 0.100 mg MPA/L), in fish media as well as to controls without the test item, in two replicates per treatment including controls, for 23 days in a 14-hours light to 10-hours dark photoperiod (OECD 229 phase). During this time period, reproduction parameters (survival of parents, fecundity, e.g., number of eggs, fertility and embryo viability/hatchability) of zebrafish exposed to the test item were assessed in comparison with the controls to determine the lowest observed effect concentration (LOEC) and the NOEC. After 23 days, newly fertilised eggs of the F1 generation were collected and exposed to the corresponding series of test item concentrations, 20 eggs in four replicates each per treatment including controls, until 30 days post-hatch (OECD 210 phase). Lethal and sublethal effects of the test item on eggs, larvae and juvenile fish exposed to the test item were assessed in comparison with controls to determine the LOEC and the NOEC. Samples were taken and analysed by LC–MS/MS (Supplemental Information) and the GMMC for the concentrations determined. Statistical check were made using Probit analyses, Weibull analyses, 2- and 3-parameter normal CDF, Shapiro-Wilk’s test on normal distribution, Levene’s test on variance homogeneity, Fisher's Exact Binomial test, Chi² 2×2 Table Test, Welsh t-test, Step-down Cochran-Armitage test Procedure, Williams Multiple Sequential t-test Procedure and Dunnett`s Multiple t-test Procedure.

[3] = test system: humans; test: Derivation of acceptable daily exposure (ADE); parameters: species or system human
Procedure: Similarly, potential risk for humans from secondary poisoning is assessed by using the acceptable daily exposure (ADE) value for MPA (T. Pfister, unpublished data), which considers toxicological data as well as human experience and covers all routes of uptake, including sensitive subpopulations, over 365 d/annum, with the combined worst‐case uptake through drinking water and fish. No removal of MPA in drinking water production is assumed, but a default intake of 2 L water and 115 g fish/person and day is assumed (European Commission 2011; Murray‐Smith et al. 2012). This combined uptake is then compared with the ADE.
The ADE was derived based on the available nonclinical and clinical data, with the critical effects identified as 1) immunosuppression and secondary effects thereof and 2) teratogenicity; in addition, the relevance of positive results in genotoxicity tests was assessed (T. Pfister, unpublished data). Based on the NOAEL of 2 mg/kg body weight/d in the 12‐mo oral toxicity study in the rat, an ADE was derived by multiplying this NOAEL by a default body weight of 60 kg for humans and dividing by adjustment factors, namely, 6.2 for extrapolation from rats to humans, 10 for variability between individuals, 1 for study duration of 1 yr for rodents, 5 for severity of systemic toxicity (hematopoiesis, immunotoxicity), and 3 for use of an established NOAEL instead of an NOEL; this derivation results in a first ADE of 0.1 mg MPM/60‐kg person/d. […] The weak clastogenic potential observed at higher doses was considered to be irrelevant at these exposure levels. Because the first ADE was lower than, and therefore also protective of, the second, 0.1 mg MPM/60‐kg person/d was selected as the ADE. Stoichiometrically, this ADE for MPM corresponds to 0.0739 mg MPA/d, which was rounded to 0.075 mg or 75 µg MPA/d. The MTDI for an otter was derived by normalizing the ADE for a 60‐kg human to the otter with a default body mass of 10 kg, resulting in an MTDI of 0.0125 mg or 12.5 µg MPA/10‐kg otter/d.

[4] = test system: daphnid; settings: in vivo
[5] = test system: inosine-5'-monophosphate dehydrogenase (IMPDH); parameters: method as in Wishart et al. 2018; Royal Pharmaceutical Society 2018; settings: ref Wishart et al. 2018; Royal Pharmaceutical Society 2018; cited from earlier work

Question: Which ErC10 ([1]; Anabaena flos-aquae) does the source give for COc1c(C)c2c(c(O)c1CC=C(C)CCC(=O)O)C(=O)OC2 [MPA, 6‐(1,3‐dihydro‐4‐hydroxy‐6‐methoxy‐7‐methyl‐3‐oxo‐5‐isobenzofuranyl)‐4‐methyl‐4‐hexenoic acid] here?
Answer: Its ErC10 is 155 µg/L.

Question: And the LOEC ([1]; Anabaena flos-aquae)?
Answer: The LOEC was 284 µg/L.

Question: And the “NOEC (both growth and yield)” value ([1]; Anabaena flos-aquae)?
Answer: The value was 83.9 µg MPA/L.

Question: And the EC50 ([1]; Dolichospermum flos-aquae, GMMC, read-out: ErC50)?
Answer: The EC50 was 0.423 µg/mL (≈ 1.32 µM).

Question: And the “hatched fish surviving until the end of the test” value ([2]; 0.1 mg MPA/L nominal (73 µg/L GMMC))?
Answer: The value was 2 of 75.

Question: What about the “EC10, hatching success” value ([2]; 34 d phase) of the same compound?
Answer: Its value is > 73 µg GMMC MPA/L.

Question: What about the “NOEC, hatching success” value ([2]; 34 d phase, GMMC) of the same compound?
Answer: The value was 73 µg/L.

Question: What about the “lowest EC10” value ([2]; Danio rerio, in vivo, 57 d) of the same compound?
Answer: Its value is 5.8 µg MPA/L.

Question: What about the “overall NOEC for all endpoints in both F0 and F1 generations” value ([2]; Danio rerio, in vivo, 57 d) of the same compound?
Answer: Its value is 1.32 µg MPA/L.

Question: And the “EC10, posthatch success (survival) and number of healthy fish” value ([2]; F1, GMMC)?
Answer: Its value is 5.8 µg MPA/L.

Question: What about the “NOEC, posthatch success (survival) and number of healthy fish” value ([2]; F1, GMMC) of the same compound?
Answer: Its value is 10.9 µg MPA/L.

Question: And the “EC10, length of the surviving F1 fish” value ([2]; GMMC)?
Answer: Its value is 31.9 µg MPA/L.

Question: What about the “EC10, wet weight of the surviving F1 fish” value ([2]; GMMC) of the same compound?
Answer: Its value is 10.6 µg MPA/L.

Question: And the “NOEC, length of the surviving F1 fish” value ([2]; GMMC)?
Answer: The value was 1.32 µg/L.

Question: And the “NOEC, wet weight of the surviving F1 fish” value ([2]; GMMC)?
Answer: The value was 1.32 µg/L.

Question: What about the “ADE, rounded” value [3] of the same compound?
Answer: The value was 75 µg MPA/d.

Question: And the “ADE, stoichiometric” value [3]?
Answer: Its value is 0.0739 mg MPA/d.

Question: And the “ADE, rounded” value ([3]; MPA/d)?
Answer: Its value is 0.075 mg.

Question: What about the “48‐h NOEC” value [4] of the same compound?
Answer: The value was 440 mg/L.

Question: What about the type of inhibition [5] of the same compound?
Answer: The type of inhibition was “reversible, potent, and noncompetitive inhibitor”.
